Results on 1 molecule are retold here after patent US20160279135A1, “THERAPIES FOR TREATING MYELOPROLIFERATIVE DISORDERS” (Gilead Sciences, Inc., priority 2013, published 2016).

Structures are written as SMILES. Several values for one entry are separate records, joined by “and”; a condition that tells them apart may be missing. Equal entries are not always repeated. Where two headings read alike, the source gives them in different places.

One experiment deals with p-STAT5. As to the kind of experiment: flow cytometry of p-STAT5 in TPO-stimulated CD34+ cells from MF patients on chronic ruxolitinib (Example 8). In kind it is cell-based, human. The following applies: 2 h, then TPO 50 ng/mL, one value per patient, TPO vehicle = 100. As for the experimental part:
(§1) In this study, PBMCs were isolated from the whole blood from five MF patients receiving chronic ruxolitinib treatment (rux 1-rux 5). The cells were treated with either vehicle, ruxolitinib, and/or Compound B for 2 hours then stimulated with TPO (50 ng/mL) for 10 minutes. Ruxolitinib at the dose of 1 or 20 nM and Compound B at the dose of 45, 200, or 700 nM were used.
(§2) The treated cells were then fixed, permeabilized and stained for FACS analysis using FACSCalibur analyzed using BD FACSDiva software.

The subject of the next experiment is p-AKT Ser473. As to the kind of experiment: Western blot of AKT phosphorylation in UT-7/TPO cells. In kind it is cell-based. The following applies: 2 h, then TPO 50 ng/mL 10 min, vs vehicle. The protocol:
In addition, Compound B was examined for the effects on the PI3K signaling pathway by determining the levels of AKT and S6 phosphorylation with or without TPO activation. Two cell lines, BaF3/MPL and UT-7/TPO sensitive or responsive to TPO activation were used. The cells were starved (i.e. growing on medium having less FBS) in […] FBS/RPMI for two hours before treated with 0.1, 1.0, or 2.0 μM of Compound B or vehicle (0.1% DMSO in RPMI) for 2 hours at 37° C. To examine the TPO-activated phosphorylation, the cells were then treated or activated with 50 ng/mL of human recombinant TPO (Peprotech) for 10 minutes at 37° C. The TPO activation or treatment may reflect the conditions in diseased cells as the PI3K pathway is activated by TPO in myelofibrosis. After treating with compound and/or TPO, the cells were collected, lysed by lysis buffer (Cell Signaling), separated by SDS-PAGE, and analyzed by the Western blot using antibodies specific to p-AKT Ser473 or pS6 Ser235/236 (Cell Signaling). The phosphorylation levels in treated cells were calculated and compared to those of untreated cells (i.e. vehicle as negative control).

The subject of another experiment is Pfeiffer cells. As to the kind of experiment: CellTiter-Glo cell viability of Pfeiffer cells with IL6. In kind it is cell-based. The following applies: Homo sapiens, 96 h, n=4, read-out: percentage of viable Pfeiffer cells, AVG; for viability at […]: 74 nM Compound B; for viability at 0.2 µM: 200 nM Compound B; for viability at 0.421 µM: 421 nM Compound B. The protocol: Next, Pfeiffer cells were treated with IL6 (0 or 3 ng/mL), Compound A (0, 136, 272, or 695 nM), and/or Compound B (0, 74, 200, or 421 nM) (n=4 per group) for 96 hours.
Cellular viability was determined using the CellTiter-Glo Luminescent Cell Viability Assay (Promega). The percentage of viable cells was normalized to the groups that were not treated with Compound A or Compound B, and standard deviation was calculated.

The test system of a further experiment is p-S6RP. As to the kind of experiment: flow cytometry of p-S6RP in TPO-stimulated CD34+ cells from MF patients on chronic ruxolitinib (Example 8). It counts as cell-based, human. Conditions: for percentage of the p-S6RP levels: 2 h, then TPO 50 ng/mL, one value per patient, TPO vehicle = 100. As for the experimental part:
as §1, §2

Consider `CC[C@H](Nc1ncnc2[nH]cnc12)c1nc2cccc(F)c2c(=O)n1-c1ccccc1` [Compound B, (S)-2-(1-((9H-purin-6-yl)amino)propyl)-5-fluoro-3-phenylquinazolin-4(3H)-one], for which the “percentage of the p-STAT5 levels” value in the experiment with p-STAT5 (Compound B 45 nM) was 92% (2×) and 85% and 95% and 83%; in the experiment with p-STAT5 (Compound B 200 nM), 93% and 83% and 91% and 72% and 90%; in the experiment with p-STAT5 (Compound B 700 nM) it was 88% and 86% and 82% and 106% and 78%. The “reduced p-AKT levels” value was found to be 11% in the experiment on p-AKT Ser473 (0.1 μM), 44% in the experiment on p-AKT Ser473 (1.0 μM) and 55% in the experiment with p-AKT Ser473 (2.0 μM). The viability at […] with Pfeiffer cells (IL6 0 ng/mL) was found to be 72%; with Pfeiffer cells (IL6 3 ng/mL), 95%. The viability at 0.2 µM was determined as 63% in the experiment on Pfeiffer cells (IL6 0 ng/mL) and 91% in the experiment with Pfeiffer cells (IL6 3 ng/mL). The viability at 0.421 µM came to 54% in the experiment on Pfeiffer cells (IL6 0 ng/mL) and 83% in the experiment on Pfeiffer cells (IL6 3 ng/mL). For the same molecule, the “percentage of the p-S6RP levels” value was 82% and 58% and 49% and 74% and 36% with p-S6RP (Compound B 45 nM); 62% and 46% and 38% and 63% and 33% in the experiment with p-S6RP (Compound B 200 nM); 46% and 48% and 32% and 55% and 17% in the experiment with p-S6RP (Compound B 700 nM). Also, the inhibition at 0.045 µM with p-S6RP (Homo sapiens, Compound B 45 nM, TPO-stimulated cells vs vehicle, all five patients, read-out: p-S6RP levels decreased (inhibited) by) was found to be 40%. Moreover, the inhibition at 0.2 µM with p-S6RP (Homo sapiens, Compound B 200 nM, TPO-stimulated cells vs vehicle, all five patients, read-out: p-S6RP levels decreased (inhibited) by) was found to be 52%. In addition, in the experiment on p-S6RP (Homo sapiens, Compound B 700 nM, TPO-stimulated cells vs vehicle, all five patients, read-out: p-S6RP levels decreased (inhibited) by), the inhibition at 0.7 µM stood at 60%.
